Test results taken from ChEMBL document CHEMBL3045669, “Evaluation of crude toxin and metabolite produced by Helminthosporium gramineum Rabenh for the control of rice sheath blight in paddy fields” (2007).

Key:
Assay type in all cases: functional
Settings in all cases: read-out: GI
Rhizoctonia solani [1] = experiment: Growth inhibition of Rhizoctonia solani AG-1 IA at 10 ug/ml after 24 hr
Rhizoctonia solani [2] = experiment: Growth inhibition of Rhizoctonia solani AG-1 IA at 100 ug/ml after 24 hr
Rhizoctonia solani [3] = experiment: Growth inhibition of Rhizoctonia solani AG-1 IA at 200 ug/ml after 24 hr
Rhizoctonia solani [4] = experiment: Growth inhibition of Rhizoctonia solani AG-1 IA at 25 ug/ml after 24 hr
Rhizoctonia solani [5] = experiment: Growth inhibition of Rhizoctonia solani AG-1 IA at 50 ug/ml after 24 hr
Rhizoctonia solani [6] = experiment: Growth inhibition of Rhizoctonia solani AG-1 IA at 1 ug/ml after 24 hr

SMILES | inhibition of growth at 10 µg/mL (Rhizoctonia solani [1]) | inhibition of growth at 100 µg/mL (Rhizoctonia solani [2]) | inhibition of growth at 200 µg/mL (Rhizoctonia solani [3]) | inhibition of growth at 25 µg/mL (Rhizoctonia solani [4]) | inhibition of growth at 50 µg/mL (Rhizoctonia solani [5]) | inhibition of growth at 1 µg/mL (Rhizoctonia solani [6])
OCC1=C[C@H](N[C@H]2C[C@H](CO)[C@@H](O[C@@H]3O[C@H](CO)[C@@H](O)[C@H](O)[C@H]3O)[C@H](O)[C@H]2O)[C@H](O)[C@@H](O)[C@@H]1O [VALIDAMYCIN] | 5.7% | 34% | 45.2% | 17% | 22.6% | 
CC(C)=C[C@H]1C[C@H](C)[C@]2(CC[C@]3(C)C[C@H]4[C@H](C(=O)C[C@@]4(C)O)/C(C=O)=C\C[C@H]32)O1 [OPHIOBOLIN A] | 85.9% |  |  | 100% | 100% | 70.2%
